Publication PMC9386018, “A lymphatic-absorbed multi-targeted kinase inhibitor for myelofibrosis therapy” (Nature Communications, 2022)
“And” between values parts separate entries of the source, which are not always exact repeats. Identical values can stand only once.

Assays:
[1] = molecular target: Target kinase isoforms (PI3K, mTOR, RAF, MEK) (Homo sapiens, UniProt P42336); assay: Target kinase isoforms 10-point IC50 determination (Supplementary Fig. 7); type: biochemical; conditions: PI3K alpha
Sequence of Target kinase isoforms (PI3K, mTOR, RAF, MEK) (Homo sapiens, UniProt P42336) (P42336 whole entry, canonical isoform): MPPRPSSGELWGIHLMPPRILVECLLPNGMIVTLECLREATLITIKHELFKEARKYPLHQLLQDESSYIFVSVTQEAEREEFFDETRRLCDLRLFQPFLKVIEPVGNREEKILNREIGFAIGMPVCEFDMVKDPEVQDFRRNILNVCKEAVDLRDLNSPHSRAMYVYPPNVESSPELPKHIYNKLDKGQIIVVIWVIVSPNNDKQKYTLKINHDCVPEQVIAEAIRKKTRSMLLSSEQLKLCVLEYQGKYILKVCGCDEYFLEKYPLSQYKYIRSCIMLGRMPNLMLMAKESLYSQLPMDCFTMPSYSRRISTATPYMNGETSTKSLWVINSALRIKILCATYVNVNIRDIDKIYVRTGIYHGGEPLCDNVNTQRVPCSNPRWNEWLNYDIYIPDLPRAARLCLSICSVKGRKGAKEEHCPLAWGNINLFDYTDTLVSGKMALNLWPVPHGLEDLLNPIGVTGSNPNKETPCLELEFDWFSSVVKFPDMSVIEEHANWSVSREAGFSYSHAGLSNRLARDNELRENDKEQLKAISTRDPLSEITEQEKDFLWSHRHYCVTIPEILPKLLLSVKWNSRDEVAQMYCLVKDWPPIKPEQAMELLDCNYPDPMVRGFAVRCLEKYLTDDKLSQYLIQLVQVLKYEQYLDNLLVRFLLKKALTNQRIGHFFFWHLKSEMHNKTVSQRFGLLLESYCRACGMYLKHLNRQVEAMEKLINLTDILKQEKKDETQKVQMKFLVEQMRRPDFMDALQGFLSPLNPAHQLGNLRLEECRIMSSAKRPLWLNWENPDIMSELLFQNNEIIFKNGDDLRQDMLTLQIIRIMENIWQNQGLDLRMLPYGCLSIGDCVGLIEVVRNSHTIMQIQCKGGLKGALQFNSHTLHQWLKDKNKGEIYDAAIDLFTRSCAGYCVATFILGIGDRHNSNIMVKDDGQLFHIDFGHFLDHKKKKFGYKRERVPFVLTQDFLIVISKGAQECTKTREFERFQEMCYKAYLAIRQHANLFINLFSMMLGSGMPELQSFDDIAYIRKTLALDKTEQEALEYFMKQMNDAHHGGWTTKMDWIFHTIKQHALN
From the text: (§1) The average percent kinase inhibition from replicate data was ranked low to high, converted to a compatible identifier format, then input into Coral Human Kinome Visualization software for presentation analysis. […] Scaling of evolutionary distance for PI kinases is only relative and is based on literature analysis[62],[63]. Average percent kinome inhibition values from replicate data are supplied in Source Data file. […] Corrected data was normalized to vehicle treated control values, and dose response percent kinase activity was analyzed by non-linear regression for determination of IC50 values.

[2] = molecular target: Target kinase isoforms (PI3K, mTOR, RAF, MEK) (Homo sapiens, UniProt P42338); assay: as above; type: biochemical; conditions: PI3K beta
Sequence of Target kinase isoforms (PI3K, mTOR, RAF, MEK) (Homo sapiens, UniProt P42338) (P42338 whole entry, canonical isoform): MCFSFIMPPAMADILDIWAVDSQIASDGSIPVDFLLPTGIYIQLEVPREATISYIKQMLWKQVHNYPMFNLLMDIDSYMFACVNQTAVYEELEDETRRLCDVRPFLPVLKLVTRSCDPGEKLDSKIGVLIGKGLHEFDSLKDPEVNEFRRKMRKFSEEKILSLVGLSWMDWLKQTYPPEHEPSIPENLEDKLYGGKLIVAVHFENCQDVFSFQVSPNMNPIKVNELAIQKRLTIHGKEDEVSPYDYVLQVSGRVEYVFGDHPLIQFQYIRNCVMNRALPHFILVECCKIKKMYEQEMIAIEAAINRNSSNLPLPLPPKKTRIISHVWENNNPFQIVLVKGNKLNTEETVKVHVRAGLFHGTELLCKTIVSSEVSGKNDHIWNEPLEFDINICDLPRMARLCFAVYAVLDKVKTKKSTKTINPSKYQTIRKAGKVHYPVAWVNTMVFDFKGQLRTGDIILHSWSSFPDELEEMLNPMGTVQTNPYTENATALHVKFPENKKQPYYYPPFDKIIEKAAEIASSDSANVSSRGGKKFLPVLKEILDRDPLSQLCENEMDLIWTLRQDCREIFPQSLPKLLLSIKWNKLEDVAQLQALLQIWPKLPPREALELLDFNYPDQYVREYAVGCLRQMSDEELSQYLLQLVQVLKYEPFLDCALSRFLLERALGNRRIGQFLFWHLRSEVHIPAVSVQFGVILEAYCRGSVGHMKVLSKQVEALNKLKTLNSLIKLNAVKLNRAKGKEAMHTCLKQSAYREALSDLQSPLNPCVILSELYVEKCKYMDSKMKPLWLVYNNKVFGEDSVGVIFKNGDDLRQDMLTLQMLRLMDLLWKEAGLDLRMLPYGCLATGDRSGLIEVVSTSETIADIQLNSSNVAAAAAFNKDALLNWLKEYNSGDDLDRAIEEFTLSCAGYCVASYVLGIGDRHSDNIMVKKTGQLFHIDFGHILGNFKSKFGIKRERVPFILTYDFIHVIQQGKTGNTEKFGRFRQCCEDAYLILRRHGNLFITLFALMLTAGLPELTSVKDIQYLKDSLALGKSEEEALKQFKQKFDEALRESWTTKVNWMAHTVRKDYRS
From the text: as §1

[3] = molecular target: Target kinase isoforms (PI3K, mTOR, RAF, MEK) (Homo sapiens, UniProt P48736); assay: as above; type: biochemical; conditions: PI3K gamma
Sequence of Target kinase isoforms (PI3K, mTOR, RAF, MEK) (Homo sapiens, UniProt P48736) (P48736 whole entry, canonical isoform): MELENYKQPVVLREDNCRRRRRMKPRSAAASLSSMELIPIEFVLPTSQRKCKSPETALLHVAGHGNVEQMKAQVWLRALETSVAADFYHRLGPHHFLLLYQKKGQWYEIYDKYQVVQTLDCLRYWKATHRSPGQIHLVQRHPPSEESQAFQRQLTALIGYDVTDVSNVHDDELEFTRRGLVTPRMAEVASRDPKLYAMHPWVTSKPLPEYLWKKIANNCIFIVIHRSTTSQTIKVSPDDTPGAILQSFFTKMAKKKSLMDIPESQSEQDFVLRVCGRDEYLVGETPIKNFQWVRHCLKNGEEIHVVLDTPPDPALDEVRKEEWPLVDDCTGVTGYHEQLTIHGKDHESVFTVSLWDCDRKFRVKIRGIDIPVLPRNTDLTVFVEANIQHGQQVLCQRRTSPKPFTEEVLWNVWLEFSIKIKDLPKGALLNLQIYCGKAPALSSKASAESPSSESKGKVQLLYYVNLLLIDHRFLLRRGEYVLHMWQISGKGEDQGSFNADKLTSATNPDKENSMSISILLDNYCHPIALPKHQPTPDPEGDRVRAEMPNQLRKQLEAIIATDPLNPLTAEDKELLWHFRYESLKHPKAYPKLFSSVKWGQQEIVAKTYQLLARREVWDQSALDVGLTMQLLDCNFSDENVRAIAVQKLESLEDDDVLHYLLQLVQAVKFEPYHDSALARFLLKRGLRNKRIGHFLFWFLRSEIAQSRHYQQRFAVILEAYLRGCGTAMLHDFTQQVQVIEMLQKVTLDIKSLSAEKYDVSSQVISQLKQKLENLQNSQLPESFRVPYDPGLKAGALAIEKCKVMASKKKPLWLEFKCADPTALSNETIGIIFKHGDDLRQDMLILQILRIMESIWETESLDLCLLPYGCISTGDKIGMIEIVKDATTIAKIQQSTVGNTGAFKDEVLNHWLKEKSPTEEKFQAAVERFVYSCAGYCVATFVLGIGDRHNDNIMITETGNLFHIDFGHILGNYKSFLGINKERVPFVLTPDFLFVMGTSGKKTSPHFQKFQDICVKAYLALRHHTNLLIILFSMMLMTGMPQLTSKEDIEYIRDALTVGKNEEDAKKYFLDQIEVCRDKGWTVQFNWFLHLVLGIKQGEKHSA
From the text: as §1

[4] = molecular target: T1, Target kinase isoforms (PI3K, mTOR, RAF, MEK) (Homo sapiens, UniProt O00329); assay: as above; type: biochemical; conditions: PI3K delta
T1 sequence (O00329 1-1044): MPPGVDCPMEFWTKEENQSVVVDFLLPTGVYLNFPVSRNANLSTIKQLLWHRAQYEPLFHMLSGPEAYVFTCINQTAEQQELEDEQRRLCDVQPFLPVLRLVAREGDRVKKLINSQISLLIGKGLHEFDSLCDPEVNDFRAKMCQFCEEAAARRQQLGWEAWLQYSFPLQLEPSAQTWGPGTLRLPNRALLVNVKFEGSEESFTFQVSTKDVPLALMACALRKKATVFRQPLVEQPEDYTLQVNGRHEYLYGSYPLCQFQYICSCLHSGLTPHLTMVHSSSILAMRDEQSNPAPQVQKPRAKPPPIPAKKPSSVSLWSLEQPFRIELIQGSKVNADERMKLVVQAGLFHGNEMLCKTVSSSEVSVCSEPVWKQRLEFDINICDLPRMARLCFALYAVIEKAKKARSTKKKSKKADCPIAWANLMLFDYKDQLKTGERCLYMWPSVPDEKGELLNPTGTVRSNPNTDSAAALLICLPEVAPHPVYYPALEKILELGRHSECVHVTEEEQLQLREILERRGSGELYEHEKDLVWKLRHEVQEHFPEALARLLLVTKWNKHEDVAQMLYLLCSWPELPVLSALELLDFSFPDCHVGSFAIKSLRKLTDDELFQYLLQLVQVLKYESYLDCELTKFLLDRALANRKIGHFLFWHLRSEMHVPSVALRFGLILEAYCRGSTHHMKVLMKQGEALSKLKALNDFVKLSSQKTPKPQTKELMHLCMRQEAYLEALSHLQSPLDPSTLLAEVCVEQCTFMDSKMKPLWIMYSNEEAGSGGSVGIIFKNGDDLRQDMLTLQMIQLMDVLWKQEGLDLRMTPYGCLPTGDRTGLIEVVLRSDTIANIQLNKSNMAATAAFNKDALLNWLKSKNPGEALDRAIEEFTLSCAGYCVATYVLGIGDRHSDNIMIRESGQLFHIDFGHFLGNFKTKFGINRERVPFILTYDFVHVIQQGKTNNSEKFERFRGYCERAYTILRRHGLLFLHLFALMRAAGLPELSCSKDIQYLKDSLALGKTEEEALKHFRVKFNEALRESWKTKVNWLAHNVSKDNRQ
From the text: as §1

[5] = Pharmacokinetic analysis of plasma after intravenous and oral dosing
[6] = concentration 0.495 nM, 0.000495 µM
[7] = concentration 1.52 nM, 0.00152 µM
[8] = concentration 4.57 nM, 0.00457 µM
[9] = concentration 0.0187 nM, 18.7 pM

COc1ncc(-c2ccc3nccc(-c4ccnnc4)c3c2)cc1NS(=O)(=O)c1ccc(F)cc1F [GSK2126458]
activity at 670 fM ([1]; concentration 0.000670 nM): 105%
Kinase Activity (%) PI3K alpha ([1]; concentration 0.00209 nM, 2.09 pM): 101%
activity at 18.8 pM ([1]; concentration 0.0188 nM): 91%
Kinase Activity (%) PI3K alpha ([1]; concentration 0.0188 nM, 18.8 pM): 89%
activity at 56.4 pM ([1]; concentration 0.0564 nM): 73%
Kinase Activity (%) PI3K alpha ([1]; concentration 0.0564 nM, 56.4 pM): 75%
activity at 0.000495 µM ([1]; concentration 0.495 nM): 15%
Kinase Activity (%) PI3K alpha [1, 6]: 17% and 18% and 16% and 20%
activity at 0.00152 µM ([1]; concentration 1.52 nM): 4%
Kinase Activity (%) PI3K alpha [1, 7]: 5% and 6%
Kinase Activity (%) PI3K alpha [1, 8]: 1%
activity at 0.0412 µM ([1]; concentration 41.2 nM): 0%
activity at 0.123 µM ([1]; concentration 123 nM): 0%
activity at […] ([1]; concentration 370 nM): 0%
activity at 1.11 µM ([1]; concentration 1110 nM): 0%
Kinase Activity (%) PI3K alpha ([1]; concentration 10000 nM, 10 µM): 1%
activity at 18.7 pM ([2]; concentration 0.0187 nM): 103%
Kinase Activity (%) PI3K beta [2, 9]: 108%
activity at 56.2 pM ([2]; concentration 0.0562 nM): 110%
Kinase Activity (%) PI3K beta ([2]; concentration 0.0562 nM, 56.2 pM): 106%
Kinase Activity (%) PI3K beta [2, 6]: 72% and 62% and 60% and 71% and 65% and 84%
Kinase Activity (%) PI3K beta [2, 7]: 48% and 51% and 47% and 67% and 62%
activity at 0.0412 µM ([2]; concentration 41.2 nM): 9%
Kinase Activity (%) PI3K beta ([2]; concentration 41.2 nM, 0.0412 µM): 7% and 8% and 10%
activity at 0.123 µM ([2]; concentration 123 nM): 9%
Kinase Activity (%) PI3K beta ([2]; concentration 123 nM, 0.123 µM): 6% and 10% and 8% and 7%
activity at […] ([2]; concentration 370 nM): 12%
activity at 1.11 µM ([2]; concentration 1110 nM): 9%
Kinase Activity (%) PI3K beta ([2]; concentration 1110 nM, 1.11 µM): 8%
activity at 3.33 µM ([2]; concentration 3330 nM): 11%
Kinase Activity (%) PI3K beta ([2]; concentration 3330 nM, 3.33 µM): 10%
activity at 2.04 pM ([2]; concentration […]): 107%
activity at 0.00152 µM ([3]; concentration 1.52 nM): 19%
Kinase Activity (%) PI3K gamma [3, 7]: 24% and 22% and 20% and 21%
activity at 0.0412 µM ([3]; concentration 41.2 nM): 0%
activity at 0.123 µM ([3]; concentration 123 nM): 0%
Kinase Activity (%) PI3K gamma ([3]; concentration 370 nM, […]): 1%
activity at 1.11 µM ([3]; concentration 1110 nM): 0%
activity at 3.33 µM ([3]; concentration 3330 nM): 0%
Kinase Activity (%) PI3K gamma ([3]; concentration 10000 nM, 10 µM): 5%
Kinase Activity (%) PI3K gamma ([3]; concentration […], 6.09 pM): 103%
activity at 670 fM ([4]; concentration 0.00067 nM): 113%
Kinase Activity (%) PI3K delta ([4]; concentration 0.00067 nM, 670 fM): 102%
activity at 18.7 pM ([4]; concentration 0.0187 nM): 97%
Kinase Activity (%) PI3K delta [4, 9]: 108%
activity at 56.2 pM ([4]; concentration 0.0562 nM): 81%
Kinase Activity (%) PI3K delta [4, 6]: 16% and 14% and 11% and 8%
Kinase Activity (%) PI3K delta [4, 8]: 6%
activity at 0.0412 µM ([4]; concentration 41.2 nM): 4%
activity at 0.123 µM ([4]; concentration 123 nM): 4%
activity at […] ([4]; concentration 370 nM): 4%
activity at 1.11 µM ([4]; concentration 1110 nM): 4%
Kinase Activity (%) PI3K delta ([4]; concentration 1110 nM, 1.11 µM): 6%
activity at 3.33 µM ([4]; concentration 3330 nM): 5%
Kinase Activity (%) PI3K delta ([4]; concentration 3330 nM, 3.33 µM): 6% and 7%
Kinase Activity (%) PI3K delta ([4]; concentration 10000 nM, 10 µM): 7% and 0%
activity at 2.04 pM ([4]; concentration […]): 103%
activity at 6.09 pM ([4]; concentration […]): 104%
Kinase Activity (%) PI3K delta ([4]; concentration […], 2.04 pM): 105%
Kinase Activity (%) PI3K delta ([4]; concentration […], 6.09 pM): 106%

O=C(O)CCOCCOCCOCCONC(=O)c1ccc(F)c(F)c1Nc1ccc(I)cc1F [LP-622, 1-(3,4-difluoro-2-((2-fluoro-4-iodophenyl)amino)phenyl)-1-oxo-3,6,9,12-tetraoxa-2-azapentadecan-15-oic acid]
Concentration ([5]; Supplementary Figure 6a, i.v., Time 0.167 h, individual replicates): 6.65 ng/mL and 5.91 ng/mL
Concentration ([5]; Supplementary Figure 6a, p.o., Time 0.167 h, individual replicates): 36.6 ng/mL and 47.3 ng/mL and 12.7 ng/mL
Concentration ([5]; Supplementary Figure 6a, p.o., Time 0.5 h, individual replicates): 11.6 ng/mL and 6.25 ng/mL
Concentration ([5]; Supplementary Figure 6a, p.o., Time 1 h, individual replicates): 8.93 ng/mL and 16.9 ng/mL and 5.41 ng/mL
concentration at 0.167 h ([5]; female, CD-1, mouse, plasma, iv, 15 mg kg^−1, Concentration, Supplementary Figure 6a, Time 0.167 h, individual replicates): 9.48 ng/mL
concentration at 0.5 h ([5]; female, CD-1, mouse, plasma, iv, 15 mg kg^−1, Concentration, Time 0.5 h, individual animals, Supplementary Figure 12b): 642 ng/mL
concentration at 1 h ([5]; female, CD-1, mouse, plasma, iv, 15 mg kg^−1, Concentration, Time 1 h, individual animals, Supplementary Figure 12b): 694 ng/mL
concentration at 2 h ([5]; female, CD-1, mouse, plasma, iv, 15 mg kg^−1, Concentration, Time 2 h, individual animals, Supplementary Figure 12b): 122 ng/mL
concentration at 4 h ([5]; female, CD-1, mouse, plasma, iv, 15 mg kg^−1, Concentration, Time 4 h, individual animals, Supplementary Figure 12b): 36.6 ng/mL
concentration at 7 h ([5]; female, CD-1, mouse, plasma, iv, 15 mg kg^−1, Concentration, Time 7 h, individual animals, Supplementary Figure 12b): 23.1 ng/mL
concentration at 16 h ([5]; female, CD-1, mouse, plasma, iv, 15 mg kg^−1, Concentration, Time 16 h, individual animals, Supplementary Figure 12b): 1.67 ng/mL
concentration at 24 h ([5]; female, CD-1, mouse, plasma, iv, 15 mg kg^−1, Concentration, Time 24 h, individual animals, Supplementary Figure 12b): 3.48 ng/mL
concentration at 0.5 h ([5]; female, CD-1, mouse, plasma, po, 400 mg kg^−1, Concentration, Supplementary Figure 6a, Time 0.5 h, individual replicates): 8.5 ng/mL
concentration at 2 h ([5]; female, CD-1, mouse, plasma, po, 400 mg kg^−1, Concentration, Supplementary Figure 6a, Time 2 h, individual replicates): 3.37 ng/mL
Concentration ([5]; i.v., Time 0.167 h, individual animals, Supplementary Figure 12b): 6980 ng/mL and 3600 ng/mL and 9800 ng/mL
Concentration ([5]; i.v., Time 0.5 h, individual animals, Supplementary Figure 12b): 950 ng/mL and 1228 ng/mL
Concentration ([5]; i.v., Time 1 h, individual animals, Supplementary Figure 12b): 1082 ng/mL
Concentration ([5]; i.v., Time 2 h, individual animals, Supplementary Figure 12b): 115.8 ng/mL and 191 ng/mL
Concentration ([5]; i.v., Time 4 h, individual animals, Supplementary Figure 12b): 46.7 ng/mL and 58.4 ng/mL
Concentration ([5]; i.v., Time 7 h, individual animals, Supplementary Figure 12b): 33.2 ng/mL and 30.9 ng/mL
Concentration ([5]; i.v., Time 16 h, individual animals, Supplementary Figure 12b): 1.98 ng/mL
Concentration ([5]; i.v., Time 24 h, individual animals, Supplementary Figure 12b): 2.84 ng/mL and 3.15 ng/mL
Concentration ([5]; p.o., Time 0.167 h, individual animals, Supplementary Figure 12b): 470 ng/mL and 532 ng/mL and 956 ng/mL
Concentration ([5]; p.o., Time 0.5 h, individual animals, Supplementary Figure 12b): 3100 ng/mL and 1908 ng/mL and 6600 ng/mL
Concentration ([5]; p.o., Time 1 h, individual animals, Supplementary Figure 12b): 1430 ng/mL and 460 ng/mL and 669 ng/mL
Concentration ([5]; p.o., Time 2 h, individual animals, Supplementary Figure 12b): 1190 ng/mL and 582 ng/mL and 3880 ng/mL
Concentration ([5]; p.o., Time 4 h, individual animals, Supplementary Figure 12b): 221 ng/mL and 348 ng/mL and 1410 ng/mL
Concentration ([5]; p.o., Time 7 h, individual animals, Supplementary Figure 12b): 1250 ng/mL and 340 ng/mL and 726 ng/mL
Concentration ([5]; p.o., Time 16 h, individual animals, Supplementary Figure 12b): 461 ng/mL and 352 ng/mL and 189 ng/mL
Concentration ([5]; p.o., Time 24 h, individual animals, Supplementary Figure 12b): 55.8 ng/mL and 114 ng/mL and 252 ng/mL
